Columns and labels:
[1] = test system: rats; set-up: method as in PMID 16026713; conditions: doses of 2 and 8 mg·kg^−1, brain tissue and peripheral blood; cited from earlier work
[2] = Cytotoxicity: HL-60 growth/viability, Trypan Blue dye exclusion; type: cell-based, human; conditions: human, HL-60 cells (acute promyelocytic leukemia); HL-60, 72 h treatment, Trypan Blue; read-out: IC50 (cytotoxic effect)
Procedure: The human acute promyelocytic leukemia cell line HL-60 was routinely grown in suspension in RPMI medium (Invitrogen, Madrid, Spain) containing glutamine ([…], Sigma-Aldrich, St. Louis, MO, USA), antibiotics (100IU penicillin mL^−1 and 100 μg streptomycin mL^−1, Sigma-Aldrich) and supplemented with 10% heat-inactivated foetal bovine serum (Linus, Cultek, Madrid, Spain) and placed in an incubator (Shel Lab, Cornelious, OR, USA) with a 5% CO2 humidified atmosphere at 37 °C [36]. HL-60 cells were subcultured every 2–3 days to maintain logarithmic growth and they were allowed to grow for 48 h before use. Cultures were plated at a density of 12.5 × 10^4 cells mL^−1 in 40 mL culture flasks (25 cm^2). Cytotoxic activity was measured as growing inhibition or decreased viability on HL-60 cells following a previous protocol modified by us. […] Cells were counted after 72 h treatment. Tested concentrations were calculated according to those used for in vivo assays to equal the range of tested doses. Untreated cultures were used as negative control. Cell viability was determined by the Trypan Blue dye exclusion test. Cells were stained with an equal volume of Trypan Blue commercial solution (Sigma-Aldrich) and counted using a hemocytometer at room temperature under a light inverted microscope (AE30/31, Motic, Barcelona, Spain). Cytotoxic effect evaluation was determined after each culture incubation period, establishing a growth curve and determining IC50 values by regression analysis of the curves. Viability estimated regressions of leukemia cells are presented as a survival percentage with respect to controls at 72 h growth and plotted as mean viability ± standard error of at least three independent replicas for each treatment and concentration.

[3] = test system: D. melanogaster; experiment: Genotoxicity: Somatic Mutation and Recombination Test (SMART), wing spot test, simple treatments; type: in vivo, Drosophila melanogaster; conditions: for Genotoxicity in the Drosophila wing spot test (in words): simple treatments, all concentrations; for Diagnosis, Small Single Spots 1–2 Cells m = 2 / Diagnosis, Total Spots m = 2 / Mutation rate, Large Single Spots >2 Cells m = 5 / Mutation rate, Small Single Spots 1–2 Cells m = 2 / Mutation rate, Total Spots m = 2 / Mutation rate, Twin Spots m = 5 / Diagnosis, Twin Spots m = 5 / Diagnosis, Large Single Spots >2 Cells m = 5: simple; for Diagnosis, Large Single Spots >2 Cells m = 5: key: + (positive); − (negative); for Diagnosis, Small Single Spots 1–2 Cells m = 2: key: + (positive); − (negative); for Diagnosis, Total Spots m = 2: key: + (positive); − (negative); for Diagnosis, Twin Spots m = 5: key: + (positive); − (negative)
Procedure: The D. melanogaster system was selected for the determination of the safety of B. officinalis consumption as a well-recognized method to analyze vegetable complex mixtures using SMART [31, 32]. This test was used in order to evaluate the genotoxic and antigenotoxic activity of B. officinalis leaves and petioles as well as their selected bioactive compounds [33]. This activity was measured by direct visualization of the occurrence of recessive mutations in the wing hairs of two different D. melanogaster strains. Flies from experiments carried these visible wing genetic markers: the flare (flr) strain flr^3/ln (3LR) TM3, Bd^s and the multiple wing-hair (mwh) strain mwh/mwh. The marker flare (flr^3, 3_38.3) produces individual malformed hairs and the marker multiple wing hairs (mwh, 3_0.3) produces multiple hairs per cell. Larvae used in treatments come from two types of crosses: the standard cross with flr^3/TM3, Bd^S females mated to mwh/mwh males and the reciprocal cross.
Optimal fertile flies were anesthetized under CO2 narcotisation for cross selection and then placed in new vials for fertilization. After that, hybrid eggs from crossing were collected over an 8 h period and emerged larvae (72 ± 4 h later) were cleaned up for a few seconds in sterile distilled water to remove feeding medium rests. For genotoxicity analysis (simple treatments), groups of 100 larvae were transferred into vials containing 0.85 g of Drosophila Instant Medium (Formula 4–24, Carolina Biological Supply, Burlington, NC, USA) wetted with 4 mL of a mixture of distilled water and increasing concentrations of samples: B. officinalis BF and WF (1.25, 2.5, and 5 mg·mL^−1), RO (0.35, 0.7, 1.39 and 2.78 mM), SY (0.16, 0.32, 0.63 and 1.26 mM), SI (0.15, 0.29, 0.58 and 1.16 mM) and the mixture of these three bioactive compounds at each concentration assayed individually. Bioactive compound concentrations were chosen on the basis of their known content in B. officinalis species. […] Larvae were fed on these media until pupation (about 48 h). After emergence, resulting adult flies were sacrificed under CO2 narcotisation and stored in a 70% ethanol solution in sterile water. Emerged adults were counted for toxicity evaluation and transheterozygous wings (mwh flr^+/mwh^+ flr^3) were mounted on microscope slides and wing hair mutations (spots) scored, using a photonic microscope (Nikon) at 400× magnification for genotoxicity and antigenotoxicity evaluation.
For the evaluation of genotoxic effects, the frequencies of spots per fly of each treated series were compared to the concurrent negative control for each class of mutational clone as well as between simple and combined treatments for the same concentration comparisons. […] A multiple-decision procedure was used to categorize results as positive, inconclusive or negative. Inconclusive and positive results were evaluated by the non-parametric U test of Mann, Whitney and Wilcoxon. The inhibition percentage (IP) of genotoxicity was calculated from the total frequencies of spots per wing, following this formula [42]: IP = (genotoxin alone − sample + genotoxin) × 100/(genotoxin alone)(2)

[4] = test system: V79 cell line; set-up: method as in doi:10.3389/conf.fgene.2015.01.0004; conditions: dose dependent, concentrations below 2 mM reduce DNA damage; cited from earlier work
[5] = test system: HL-60 cells; set-up: method as in PMID 19067382; conditions: SY in extracts of Elaphomyces granulates, concentrations up to ~31 µg·mL^−1; cited from earlier work
[6] = test system: HL-60 cell; conditions: 0.1 mM in cell medium; cited from earlier work

SMILES: O=C(/C=C/c1ccc(O)c(O)c1)O[C@H](Cc1ccc(O)c(O)c1)C(=O)O [RO, rosmarinic acid]
- Genotoxic effect, comet assay [1]: no genotoxic effect
- IC50 at 72 h [2]: 70 µM
- Genotoxicity in the Drosophila wing spot test (in words) [3]: not mutagenic
- Diagnosis, Small Single Spots 1–2 Cells m = 2 ([3]; 0.35 mM RO): −
- Diagnosis, Total Spots m = 2 ([3]; 0.35 mM RO): −
- Mutation rate, Large Single Spots >2 Cells m = 5 ([3]; 0.35 mM RO): 0 spots/wing
- Mutation rate, Small Single Spots 1–2 Cells m = 2 ([3]; 0.35 mM RO): 0.38 (6) spots/wing
- Mutation rate, Total Spots m = 2 ([3]; 0.35 mM RO): 0.38 (6) spots/wing
- Mutation rate, Twin Spots m = 5 ([3]; 0.35 mM RO): 0 spots/wing
- Diagnosis, Small Single Spots 1–2 Cells m = 2 ([3]; 0.7 mM RO): −
- Diagnosis, Total Spots m = 2 ([3]; 0.7 mM RO): −
- Diagnosis, Twin Spots m = 5 ([3]; 0.7 mM RO): −
- Mutation rate, Large Single Spots >2 Cells m = 5 ([3]; 0.7 mM RO): 0 spots/wing
- Mutation rate, Small Single Spots 1–2 Cells m = 2 ([3]; 0.7 mM RO): 0.21 (7) spots/wing
- Mutation rate, Total Spots m = 2 ([3]; 0.7 mM RO): 0.26 (9) spots/wing
- Mutation rate, Twin Spots m = 5 ([3]; 0.7 mM RO): 0.06 (2) spots/wing
- Diagnosis, Small Single Spots 1–2 Cells m = 2 ([3]; 1.39 mM RO): −
- Diagnosis, Total Spots m = 2 ([3]; 1.39 mM RO): −
- Diagnosis, Twin Spots m = 5 ([3]; 1.39 mM RO): −
- Mutation rate, Large Single Spots >2 Cells m = 5 ([3]; 1.39 mM RO): 0 spots/wing
- Mutation rate, Small Single Spots 1–2 Cells m = 2 ([3]; 1.39 mM RO): 0.18 (4) spots/wing
- Mutation rate, Total Spots m = 2 ([3]; 1.39 mM RO): 0.23 (5) spots/wing
- Mutation rate, Twin Spots m = 5 ([3]; 1.39 mM RO): 0.05 (1) spots/wing
- Diagnosis, Large Single Spots >2 Cells m = 5 ([3]; 2.78 mM RO): −
- Diagnosis, Small Single Spots 1–2 Cells m = 2 ([3]; 2.78 mM RO): −
- Diagnosis, Total Spots m = 2 ([3]; 2.78 mM RO): −
- Mutation rate, Large Single Spots >2 Cells m = 5 ([3]; 2.78 mM RO): 0.05 (2) spots/wing
- Mutation rate, Small Single Spots 1–2 Cells m = 2 ([3]; 2.78 mM RO): 0.16 (6) spots/wing
- Mutation rate, Total Spots m = 2 ([3]; 2.78 mM RO): 0.21 (8) spots/wing
- Mutation rate, Twin Spots m = 5 ([3]; 2.78 mM RO): 0 spots/wing

SMILES: COc1cc(/C=C/C(=O)O)cc(OC)c1O [SI, sinapic acid]
- Genotoxic/antigenotoxic activity [4]: antigenotoxic
- Genotoxicity in the Drosophila wing spot test (in words) [3]: not mutagenic
- Diagnosis, Large Single Spots >2 Cells m = 5 ([3]; 0.15 mM SI): −
- Diagnosis, Small Single Spots 1–2 Cells m = 2 ([3]; 0.15 mM SI): −
- Diagnosis, Total Spots m = 2 ([3]; 0.15 mM SI): −
- Diagnosis, Twin Spots m = 5 ([3]; 0.15 mM SI): −
- Mutation rate, Large Single Spots >2 Cells m = 5 ([3]; 0.15 mM SI): 0.04 (1) spots/wing
- Mutation rate, Small Single Spots 1–2 Cells m = 2 ([3]; 0.15 mM SI): 0.38 (9) spots/wing
- Mutation rate, Total Spots m = 2 ([3]; 0.15 mM SI): 0.46 (11) spots/wing
- Mutation rate, Twin Spots m = 5 ([3]; 0.15 mM SI): 0.04 (1) spots/wing
- Diagnosis, Large Single Spots >2 Cells m = 5 ([3]; 0.29 mM SI): −
- Diagnosis, Small Single Spots 1–2 Cells m = 2 ([3]; 0.29 mM SI): −
- Diagnosis, Total Spots m = 2 ([3]; 0.29 mM SI): −
- Mutation rate, Large Single Spots >2 Cells m = 5 ([3]; 0.29 mM SI): 0.10 (3) spots/wing
- Mutation rate, Small Single Spots 1–2 Cells m = 2 ([3]; 0.29 mM SI): 0.39 (12) spots/wing
- Mutation rate, Total Spots m = 2 ([3]; 0.29 mM SI): 0.48 (15) spots/wing
- Mutation rate, Twin Spots m = 5 ([3]; 0.29 mM SI): 0 spots/wing
- Diagnosis, Large Single Spots >2 Cells m = 5 ([3]; 0.58 mM SI): −
- Diagnosis, Small Single Spots 1–2 Cells m = 2 ([3]; 0.58 mM SI): −
- Diagnosis, Total Spots m = 2 ([3]; 0.58 mM SI): −
- Mutation rate, Large Single Spots >2 Cells m = 5 ([3]; 0.58 mM SI): 0.07 (2) spots/wing
- Mutation rate, Small Single Spots 1–2 Cells m = 2 ([3]; 0.58 mM SI): 0.33 (10) spots/wing
- Mutation rate, Total Spots m = 2 ([3]; 0.58 mM SI): 0.40 (12) spots/wing
- Mutation rate, Twin Spots m = 5 ([3]; 0.58 mM SI): 0 spots/wing
- Diagnosis, Large Single Spots >2 Cells m = 5 ([3]; 1.16 mM SI): −
- Diagnosis, Small Single Spots 1–2 Cells m = 2 ([3]; 1.16 mM SI): −
- Diagnosis, Total Spots m = 2 ([3]; 1.16 mM SI): −
- Diagnosis, Twin Spots m = 5 ([3]; 1.16 mM SI): −
- Mutation rate, Large Single Spots >2 Cells m = 5 ([3]; 1.16 mM SI): 0.03 (1) spots/wing
- Mutation rate, Small Single Spots 1–2 Cells m = 2 ([3]; 1.16 mM SI): 0.23 (9) spots/wing
- Mutation rate, Total Spots m = 2 ([3]; 1.16 mM SI): 0.28 (11) spots/wing
- Mutation rate, Twin Spots m = 5 ([3]; 1.16 mM SI): 0.03 (1) spots/wing

SMILES: COc1cc(C(=O)O)cc(OC)c1O [SY, syringic acid]
- Cytotoxic effect in HL-60 [5]: no cytotoxic effect
- Apoptosis induction in HL-60 [6]: did not induce apoptosis
- Genotoxicity in the Drosophila wing spot test (in words) [3]: not mutagenic
- Diagnosis, Large Single Spots >2 Cells m = 5 ([3]; 0.16 mM SY): −
- Diagnosis, Small Single Spots 1–2 Cells m = 2 ([3]; 0.16 mM SY): −
- Diagnosis, Total Spots m = 2 ([3]; 0.16 mM SY): −
- Diagnosis, Twin Spots m = 5 ([3]; 0.16 mM SY): −
- Mutation rate, Large Single Spots >2 Cells m = 5 ([3]; 0.16 mM SY): 0.05 (2) spots/wing
- Mutation rate, Small Single Spots 1–2 Cells m = 2 ([3]; 0.16 mM SY): 0.30 (12) spots/wing
- Mutation rate, Total Spots m = 2 ([3]; 0.16 mM SY): 0.38 (15) spots/wing
- Mutation rate, Twin Spots m = 5 ([3]; 0.16 mM SY): 0.03 (1) spots/wing
- Diagnosis, Large Single Spots >2 Cells m = 5 ([3]; 0.32 mM SY): −
- Diagnosis, Small Single Spots 1–2 Cells m = 2 ([3]; 0.32 mM SY): −
- Diagnosis, Total Spots m = 2 ([3]; 0.32 mM SY): −
- Mutation rate, Large Single Spots >2 Cells m = 5 ([3]; 0.32 mM SY): 0.07 (2) spots/wing
- Mutation rate, Small Single Spots 1–2 Cells m = 2 ([3]; 0.32 mM SY): 0.20 (6) spots/wing
- Mutation rate, Total Spots m = 2 ([3]; 0.32 mM SY): 0.27 (8) spots/wing
- Mutation rate, Twin Spots m = 5 ([3]; 0.32 mM SY): 0 spots/wing
- Diagnosis, Large Single Spots >2 Cells m = 5 ([3]; 0.63 mM SY): −
- Diagnosis, Small Single Spots 1–2 Cells m = 2 ([3]; 0.63 mM SY): −
- Diagnosis, Total Spots m = 2 ([3]; 0.63 mM SY): −
- Mutation rate, Large Single Spots >2 Cells m = 5 ([3]; 0.63 mM SY): 0.02 (1) spots/wing
- Mutation rate, Small Single Spots 1–2 Cells m = 2 ([3]; 0.63 mM SY): 0.19 (9) spots/wing
- Mutation rate, Total Spots m = 2 ([3]; 0.63 mM SY): 0.21 (10) spots/wing
- Mutation rate, Twin Spots m = 5 ([3]; 0.63 mM SY): 0 spots/wing
- Diagnosis, Large Single Spots >2 Cells m = 5 ([3]; 1.26 mM SY): −
- Diagnosis, Small Single Spots 1–2 Cells m = 2 ([3]; 1.26 mM SY): −
- Diagnosis, Total Spots m = 2 ([3]; 1.26 mM SY): −
- Mutation rate, Large Single Spots >2 Cells m = 5 ([3]; 1.26 mM SY): 0.06 (2) spots/wing
- Mutation rate, Small Single Spots 1–2 Cells m = 2 ([3]; 1.26 mM SY): 0.22 (7) spots/wing
- Mutation rate, Twin Spots m = 5 ([3]; 1.26 mM SY): 0 spots/wing
